Results on six compounds are retold here after ChEMBL document CHEMBL5465560, “Selectivity Literature for EUbOPEN Chemogenomic Library” (2024).

The structures appear in SMILES notation.

The target of assay [1] is T1, Mitogen-activated protein kinase kinase kinase 5 (Homo sapiens) (UniProt Q99683).
T1 sequence (whole entry): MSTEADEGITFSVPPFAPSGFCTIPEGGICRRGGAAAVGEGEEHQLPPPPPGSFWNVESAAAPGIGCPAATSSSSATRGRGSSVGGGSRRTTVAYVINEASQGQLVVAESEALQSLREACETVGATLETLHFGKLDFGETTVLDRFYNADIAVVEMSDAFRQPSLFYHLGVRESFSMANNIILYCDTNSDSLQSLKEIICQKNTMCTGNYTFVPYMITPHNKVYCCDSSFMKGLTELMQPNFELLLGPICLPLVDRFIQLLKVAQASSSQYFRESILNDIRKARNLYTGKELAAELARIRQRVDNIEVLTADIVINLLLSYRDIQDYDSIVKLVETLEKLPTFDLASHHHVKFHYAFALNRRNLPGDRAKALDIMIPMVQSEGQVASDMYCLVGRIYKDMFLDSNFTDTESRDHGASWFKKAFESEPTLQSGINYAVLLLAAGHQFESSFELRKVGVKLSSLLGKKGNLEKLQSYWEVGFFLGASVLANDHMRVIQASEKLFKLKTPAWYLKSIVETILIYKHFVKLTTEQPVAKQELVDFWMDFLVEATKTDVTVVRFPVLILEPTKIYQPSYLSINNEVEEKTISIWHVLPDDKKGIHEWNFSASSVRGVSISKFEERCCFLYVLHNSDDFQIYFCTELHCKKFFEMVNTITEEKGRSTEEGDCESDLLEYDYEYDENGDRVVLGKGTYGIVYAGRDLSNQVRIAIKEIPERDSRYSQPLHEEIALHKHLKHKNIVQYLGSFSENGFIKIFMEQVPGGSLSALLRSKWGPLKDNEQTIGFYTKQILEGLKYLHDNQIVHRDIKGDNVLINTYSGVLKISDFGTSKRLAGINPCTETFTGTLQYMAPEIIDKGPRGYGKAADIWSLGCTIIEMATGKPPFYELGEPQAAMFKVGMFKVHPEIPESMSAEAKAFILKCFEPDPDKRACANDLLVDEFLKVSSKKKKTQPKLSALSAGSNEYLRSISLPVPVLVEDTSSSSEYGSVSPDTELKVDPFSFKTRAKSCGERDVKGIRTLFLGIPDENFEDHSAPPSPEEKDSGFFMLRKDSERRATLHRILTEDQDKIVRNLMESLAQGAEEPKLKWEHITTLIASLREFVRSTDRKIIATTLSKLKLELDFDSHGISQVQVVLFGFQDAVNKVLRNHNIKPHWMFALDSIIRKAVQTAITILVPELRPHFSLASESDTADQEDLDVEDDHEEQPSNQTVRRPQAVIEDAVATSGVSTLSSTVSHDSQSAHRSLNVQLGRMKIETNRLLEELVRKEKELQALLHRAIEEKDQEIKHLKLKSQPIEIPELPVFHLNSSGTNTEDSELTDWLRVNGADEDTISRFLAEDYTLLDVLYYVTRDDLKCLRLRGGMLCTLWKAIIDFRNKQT
As to the kind of experiment: Selectivity interaction (ProQinase) EUB0000171b MAP3K5.

The target of assay [2] is Phosphatidylinositol 4-phosphate 5-kinase type-1 alpha (Homo sapiens) (UniProt Q99755). The experiment in a line: Selectivity interaction (ProQinase) EUB0000171b PIP5K1A.
Phosphatidylinositol 4-phosphate 5-kinase type-1 alpha (Homo sapiens), sequence (Q99755 whole entry): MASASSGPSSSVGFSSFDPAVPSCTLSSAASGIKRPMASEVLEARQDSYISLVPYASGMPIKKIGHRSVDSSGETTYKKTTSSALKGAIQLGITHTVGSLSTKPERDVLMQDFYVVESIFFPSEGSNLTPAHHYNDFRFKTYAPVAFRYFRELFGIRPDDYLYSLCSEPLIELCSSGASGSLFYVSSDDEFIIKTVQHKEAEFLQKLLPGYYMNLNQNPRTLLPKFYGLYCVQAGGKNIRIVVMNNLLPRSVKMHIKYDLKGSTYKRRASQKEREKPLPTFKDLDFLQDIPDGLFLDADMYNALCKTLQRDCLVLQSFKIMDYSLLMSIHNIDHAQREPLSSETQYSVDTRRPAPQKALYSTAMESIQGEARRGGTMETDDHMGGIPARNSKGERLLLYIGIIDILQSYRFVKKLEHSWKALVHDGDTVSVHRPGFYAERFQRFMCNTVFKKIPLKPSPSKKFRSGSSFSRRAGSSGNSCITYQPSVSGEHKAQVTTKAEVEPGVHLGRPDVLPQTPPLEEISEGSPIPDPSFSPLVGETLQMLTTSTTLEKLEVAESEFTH
Assay [3] addresses Rho-associated protein kinase 2 (Homo sapiens, UniProt O75116). To be noted: at 10 µM.
Assay [4] has as its target Histone-lysine N-methyltransferase ASH1L (Homo sapiens) (UniProt Q9NR48). The experiment in a line: Selectivity interaction (Methyltransferase screen (Scintillation proximity assays)) EUB0000255b ASH1L. For orientation: Scintillation proximity formats need no separation of bound from free tracer.
The target in assay [5] is T2, Ephrin type-B receptor 3 (Homo sapiens) (UniProt P54753).
T2 sequence (whole entry): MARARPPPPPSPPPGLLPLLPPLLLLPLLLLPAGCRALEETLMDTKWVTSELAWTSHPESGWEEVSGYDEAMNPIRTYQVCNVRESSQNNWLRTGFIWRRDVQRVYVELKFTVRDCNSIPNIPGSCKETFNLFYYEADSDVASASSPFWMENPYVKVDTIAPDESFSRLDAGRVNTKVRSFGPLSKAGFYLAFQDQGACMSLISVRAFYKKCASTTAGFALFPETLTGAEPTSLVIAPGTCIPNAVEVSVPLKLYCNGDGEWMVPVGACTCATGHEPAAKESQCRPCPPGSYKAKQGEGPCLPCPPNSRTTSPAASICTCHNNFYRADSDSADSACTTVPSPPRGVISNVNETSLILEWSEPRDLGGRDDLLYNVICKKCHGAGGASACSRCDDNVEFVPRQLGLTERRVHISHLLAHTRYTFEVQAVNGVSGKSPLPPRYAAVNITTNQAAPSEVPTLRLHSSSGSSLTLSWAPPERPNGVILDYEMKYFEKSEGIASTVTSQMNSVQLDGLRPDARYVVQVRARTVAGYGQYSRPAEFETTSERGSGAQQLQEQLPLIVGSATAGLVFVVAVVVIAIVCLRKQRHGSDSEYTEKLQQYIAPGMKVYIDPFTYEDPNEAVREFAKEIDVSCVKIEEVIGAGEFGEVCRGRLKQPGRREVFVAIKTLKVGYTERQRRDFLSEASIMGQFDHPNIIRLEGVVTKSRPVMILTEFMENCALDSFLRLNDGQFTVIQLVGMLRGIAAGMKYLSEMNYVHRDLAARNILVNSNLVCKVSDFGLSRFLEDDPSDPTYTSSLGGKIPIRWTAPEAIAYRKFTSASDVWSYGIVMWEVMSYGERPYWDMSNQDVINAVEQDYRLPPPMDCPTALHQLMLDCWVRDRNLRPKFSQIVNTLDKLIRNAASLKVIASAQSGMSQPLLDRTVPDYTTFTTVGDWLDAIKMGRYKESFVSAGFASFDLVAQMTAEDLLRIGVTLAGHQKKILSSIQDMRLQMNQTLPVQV
The experiment in a line: Selectivity interaction (KinomeScan (DiscoverX)) EUB0000595a EPHB3. To be noted: at 10 µM.

Assay [6] concerns the target Phosphorylase b kinase gamma catalytic chain, skeletal muscle/heart isoform (Homo sapiens) (UniProt Q16816). The experiment in a line: Selectivity interaction (KinomeScan (DiscoverX)) EUB0001619a PHKG1. To be noted: at 1 µM.
In a further assay the target is Aurora kinase B (Homo sapiens, UniProt Q96GD4). The experiment in a line: Selectivity interaction (Kinase panel (literature)) EUB0001199aCl AURKB. To be noted: at 1 µM.
Aurora kinase B, sequence (Q96GD4 whole entry): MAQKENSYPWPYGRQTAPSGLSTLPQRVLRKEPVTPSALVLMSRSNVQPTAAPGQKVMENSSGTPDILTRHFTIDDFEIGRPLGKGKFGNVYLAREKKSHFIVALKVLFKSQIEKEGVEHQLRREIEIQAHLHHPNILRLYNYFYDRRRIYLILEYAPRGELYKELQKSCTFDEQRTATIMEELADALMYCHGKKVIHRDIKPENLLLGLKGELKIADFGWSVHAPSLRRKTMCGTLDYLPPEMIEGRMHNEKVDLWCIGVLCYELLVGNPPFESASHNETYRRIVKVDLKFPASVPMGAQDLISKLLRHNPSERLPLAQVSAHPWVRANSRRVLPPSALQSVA

Phosphorylase b kinase gamma catalytic chain, skeletal muscle/heart isoform (Homo sapiens), sequence (Q16816 whole entry, looked up, canonical isoform): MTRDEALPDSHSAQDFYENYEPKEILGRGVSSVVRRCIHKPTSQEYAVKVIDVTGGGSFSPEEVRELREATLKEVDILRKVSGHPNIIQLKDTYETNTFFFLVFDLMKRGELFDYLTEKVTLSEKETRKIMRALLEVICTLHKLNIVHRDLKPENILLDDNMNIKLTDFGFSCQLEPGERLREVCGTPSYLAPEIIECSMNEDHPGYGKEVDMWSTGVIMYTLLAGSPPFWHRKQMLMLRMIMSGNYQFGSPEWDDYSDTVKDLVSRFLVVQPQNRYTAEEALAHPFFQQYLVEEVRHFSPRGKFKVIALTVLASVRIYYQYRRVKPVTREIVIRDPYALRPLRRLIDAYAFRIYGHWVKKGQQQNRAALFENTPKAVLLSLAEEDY
Rho-associated protein kinase 2, sequence (O75116 whole entry, looked up): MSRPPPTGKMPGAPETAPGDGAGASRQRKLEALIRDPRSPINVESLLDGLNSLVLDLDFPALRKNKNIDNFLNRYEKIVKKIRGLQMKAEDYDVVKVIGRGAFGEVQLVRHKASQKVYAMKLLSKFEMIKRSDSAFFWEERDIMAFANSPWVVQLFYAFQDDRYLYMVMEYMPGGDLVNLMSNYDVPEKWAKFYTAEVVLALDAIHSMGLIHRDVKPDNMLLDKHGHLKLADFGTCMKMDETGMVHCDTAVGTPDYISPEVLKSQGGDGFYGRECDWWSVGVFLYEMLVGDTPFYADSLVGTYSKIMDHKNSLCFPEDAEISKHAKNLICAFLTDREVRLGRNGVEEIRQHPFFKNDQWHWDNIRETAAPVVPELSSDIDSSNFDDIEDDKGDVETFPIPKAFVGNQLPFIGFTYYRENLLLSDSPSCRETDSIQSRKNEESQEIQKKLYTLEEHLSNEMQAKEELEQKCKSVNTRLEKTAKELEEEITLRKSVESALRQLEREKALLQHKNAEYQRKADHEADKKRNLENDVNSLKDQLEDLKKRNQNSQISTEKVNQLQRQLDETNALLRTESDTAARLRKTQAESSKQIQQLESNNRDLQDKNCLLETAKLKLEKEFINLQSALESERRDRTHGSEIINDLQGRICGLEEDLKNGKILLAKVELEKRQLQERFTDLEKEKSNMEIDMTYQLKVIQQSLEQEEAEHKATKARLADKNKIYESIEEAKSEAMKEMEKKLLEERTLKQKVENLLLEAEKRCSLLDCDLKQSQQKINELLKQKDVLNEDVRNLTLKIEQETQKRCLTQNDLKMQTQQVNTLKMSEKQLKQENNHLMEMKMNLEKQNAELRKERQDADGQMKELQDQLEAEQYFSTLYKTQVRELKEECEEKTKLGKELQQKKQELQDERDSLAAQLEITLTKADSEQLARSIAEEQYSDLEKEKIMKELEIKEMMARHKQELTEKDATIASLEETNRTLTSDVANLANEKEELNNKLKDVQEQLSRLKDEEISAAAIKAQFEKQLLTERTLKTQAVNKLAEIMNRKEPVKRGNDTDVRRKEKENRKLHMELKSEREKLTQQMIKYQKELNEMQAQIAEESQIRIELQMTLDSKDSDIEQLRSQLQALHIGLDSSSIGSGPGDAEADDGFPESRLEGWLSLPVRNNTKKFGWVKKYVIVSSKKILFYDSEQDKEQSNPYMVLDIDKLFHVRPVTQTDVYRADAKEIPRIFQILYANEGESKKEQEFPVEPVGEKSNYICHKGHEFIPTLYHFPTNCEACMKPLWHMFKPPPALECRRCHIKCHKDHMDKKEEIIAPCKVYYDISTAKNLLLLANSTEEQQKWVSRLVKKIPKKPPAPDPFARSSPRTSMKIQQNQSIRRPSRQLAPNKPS

Regarding `C=CC(=O)Nc1cccc(C(=O)Nc2ccc(Nc3cc(-c4[nH]c(SC)nc4C)ccn3)cc2)c1`, the % of control in assay [1] (at 1 µM) amounted to 92%; in assay [1] (at 5 µM), 95%; in assay [2] (at 1 µM) it was 102%; in assay [2] (at 5 µM), 44%.

`Cc1cc([C@@H](C)Nc2ccccc2C(=O)O)c2nc(N3CCOCC3)cc(=O)n2c1` [AZD-6482] displayed a % of control in assay [3] of 91%.

Regarding `COCCN1CCC(c2cc(CN(C)C(=O)c3cccc(Oc4ccccc4)c3)ccn2)CC1`, the % activity was > 95% in assay [4] (at 1 µM) and > 90% in assay [4] (at 10 µM).

`COCC(=O)NC/C=C/c1ccc2ncnc(Nc3ccc(Oc4ccc(C)nc4)c(C)c3)c2c1` [CP-724714] yielded a % of control in assay [5] of 86%.

In assay [6], `N#Cc1cccc(-c2c[nH]c3ncnc(N4CCOCC4)c23)c1` came in with a % of control of 81%.

`CN1Cc2nccc(-c3cn(C)nc3-c3ccc(F)cc3)c2C1=O` gave a % of inhibition on Aurora kinase B of 4%.
